# Test results: US20040229837A1, “Treatment of neurodegenerative diseases” (priority 2003, published 2004)
# Experiments:
# wild-type mice [1] = experiment: Number of activated astrocytes, wild-type mice; format: in vivo; conditions: chronic CGS treatment
# Procedure: Single antigen immunohistochemistry was carried out by the avidin-biotin-peroxidase complex method as previously described (Liu et al. (1998) FEBS Lett. 436:92-98). In brief, free-floating sections were incubated in the polyclonal anti-GFAP antiserum (1 :1000 dilution, Sigma, St. Louis, Mo., USA) at 4° C. for 36-48 h followed by a biotinconjugated goat anti-rabbit IgG (1:500, Vector Laboratories, Burlingame, Calif., USA) for 2 h, and then with an avidin-biotin-peroxidase complex for 2 h with three rinses of 0.1 M PB in between. Sections were incubated in 0.1 M PB containing 0.02% DAB and 0.08% nickel ammonium sulfate. Immunostaining was developed by adding H2O2 to a final concentration of 0.0024%. […] The pattern of double immunostaining was analyzed with the aid of a laser confocal microscope (Bio-Rad, MRC-1000, Hercules, Calif., USA).
# (§1) Serial-cut coronal tissue sections from the rostral segment of the neostriatum to the level of the anterior commissure (interaural 5.34 mm/bregma 1.54 mm to interaural 3.7 mm/bregma -0.1 mm) were used to define atrophy of the striatum and enlargement of the lateral ventricles. Total areas of the striatum or the lateral ventricles were measured using the software, NIH Image 1.62. Nissl- and GFAP-stained sections were quantified by counting the corresponding types of cells in defined areas of photomicrographs taken using a microscope in phase contrast. […]
# R6/2 mice [2] = experiment: Motor coordination assessed by rotarod performance of R6/2 mice; format: in vivo; conditions: CGS treatment
# wild-type mice [3] = experiment: Choline/creatine levels after chronic CGS, wild-type mice; format: in vivo; conditions: chronic IP-administration of CGS
# Procedure: Animals were anesthetized using chloral hydrate (4.088 mg/10 g, i.p. injection). Measurements were performed on a Biospec 4.7 T spectrometer with an active shielding gradient at 6.9 G/cm in 500 us. Mice were placed in a prone position with a custom-designed head-holder. A 20-cm birdcage coil was used for RF excitation, and a 2-cm-diameter surface coil placed directly over the head was used for signal receiving. The volume of interest (VOI) for ^1H-MRS measurements over the striatum was selected on the basis of coronal diffusion-weighted image using a pulse gradient spin-echo diffusion method with a repetition time (TR) of 1500 ms, an echo time (TE) of 62 ms, a field of view of 3 cm×3 cm, a slice thickness of 1 mm, a b value of 1300 s/mm^2, number averages of 2, a 256 -128 matrix size zero filled to 256 -156. The diffusion-sensitive gradients were applied in the read (×) direction before and after the refocusing pulse. Point-resolved spectroscopy (PRESS) sequence, preceded by three consecutive chemical shift selective saturation (CHESS) pulses for water suppression, was used for localized spectroscopy with a 3.5 ×3.5 ×3.5 mm^3voxel located in the striatum region, a spectral width (sw) of 4000 Hz, a TR of 3.5 s, a TE of 136 ms, signal averages of 256, and total scanning time of 8 min 32 sec. The peak areas of NAA, choline (Cho), and creatine (Cr), were recognized. […]
# R6/2 mice [4] = experiment: Number of activated (GFAP-positive) astrocytes by immunohistochemistry, R6/2 mice; format: in vivo
# Procedure: (§2) Animals were deeply anesthetized with sodium pentobarbital (100 ug/g), and intracardially perfused with 4% paraformaldehyde in 0.1 M phosphate buffer (PB, pH 7.4). Brains were carefully removed, post-fixed with 4% paraformaldehyde/0. 1 M PB for 2-5 h, and then immersed in 30% glycerol in 0.1 M PB. Tissues were cut at 20 um on a freezing microtome (CM3050, Leica Microsystems Nussloch GmbH, Nussloch, Germany).
# Single antigen immunohistochemistry was carried out by the avidin-biotin-peroxidase complex method as previously described (Liu et al. (1998) FEBS Lett. 436:92-98). […] The pattern of double immunostaining was analyzed with the aid of a laser confocal microscope (Bio-Rad, MRC-1000, Hercules, Calif., USA).
# as §1
# R6/2 mice [5] = experiment: Number of glia by Nissl staining, R6/2 mice; format: in vivo; conditions: chronic CGS treatment
# Procedure: as §2
# Serial-cut coronal tissue sections from the rostral segment of the neostriatum to the level of the anterior commissure (interaural 5.34 mm/bregma 1.54 mm to interaural 3.7 mm/bregma -0.1 mm) were used to define atrophy of the striatum and enlargement of the lateral ventricles. Total areas of the striatum or the lateral ventricles were measured using the software, NIH Image 1.62. Nissl- and GFAP-stained sections were quantified by counting the corresponding types of cells in defined areas of photomicrographs taken using a microscope in phase contrast.
# Alternatively, elevated choline content may reflect a change in cell types. […] The number of glia was determined using the Nissl staining technique. […] The number of astrocytes, the most numerous of glial cells, was also assessed by staining the brain sections using an antibody against an astrocytic marker (glial fibrillary acidic protein, GFAP). […]
# rats = conditions: low dosage, Popoli et al. (2002); cited from earlier work
# R6/2 mice [6] = experiment: Locomotor activity of R6/2 mice; format: in vivo; conditions: ZM241385 7.5 ug/g given with CGS
smiles,measurement,setting,value
CCNC(=O)[C@H]1O[C@@H](n2cnc3c(N)nc(NCCc4ccc(CCC(=O)O)cc4)nc32)[C@H](O)[C@@H]1O [CGS],number of activated astrocytes,wild-type mice [1],not affected
same,motor coordination assessed by rotarod performance,R6/2 mice [2],not affected
same,changes in choline/creatine levels,wild-type mice [3],no detectable changes
same,enhancement of the number of activated astrocytes,"R6/2 mice [4]; R6/2 mice, chronic CGS treatment, in the striatum and in the cortex",8 fold
same,number of glial cells,R6/2 mice [5],did not affect
Nc1nc2c(cnn2CCc2ccccc2)c2nc(-c3ccco3)nn12 [SCH58261],QA-induced excitotoxicity,rats,reduced QA-induced excitotoxicity
Nc1nc(NCCc2ccc(O)cc2)nc2nc(-c3ccco3)nn12 [ZM241385],"ameliorating effect of CGS on locomotor activity, blockade by antagonist",R6/2 mice [6],could be blocked
same,number of activated astrocytes in the striatum,"R6/2 mice [4]; R6/2 mice treated with ZM and CGS simultaneously, n=4",43±8 /mm^2
